Measured values reported in patent publication US5734013A, “Peptides having farnesyl transferase inhibiting properties and strain of genus streptomyces for producing same” (Rhone-Poulenc Rorer S.A., priority 1994, dated 1998).
Starred links: 1 amine or outer side, 2 acyl side, 3 side chain; linkers in the order of their positions; H or OH if unused. Positions of bridges follow the written chain, without caps; N, C: chain ends. Non-standard residues stand in square brackets, D forms with d. Residues, ends and D or L forms follow the SMILES beside them. *: point of attachment. Trp(5-OH) = N[CH](Cc1c[nH]c2ccc(O)cc12)C(=O)O; Propanoyl(3-cHex) = O=C(CCC1CCCCC1)*; Hpg = N[CH](C(=O)O)c1ccc(O)cc1; NMeF = CN[CH](Cc1ccccc1)C(=O)O; X1 = CC1CC1(N[*:1])C(=O)[*:2]; Ac3c = NC1(C(=O)O)CC1

These compounds were tested against T1, farnesyl transferase (Ftase) (Homo sapiens, UniProt P49354+P49356) (assay: Scintillation proximity assay (SPA) test for farnesyl transferase inhibition). Conditions: Ftase partially purified from human THP1 cells; biotinylated B lamin peptide (BLB) 0.1 μM, 3HFPP 0.12 μM; 37° C., 60 minutes.
T1 construct: This enzyme was partially purified from human THP1 cells; endogenous in cells; host or cells: human THP1 cells (enzyme partially purified)
Format: biochemical
Description: The principle of SPA (scintillation proximity assay) technology is applied to assaying the enzymic activity of farnesyl transferase. According to this method, farnesyl transferase inhibitory activity is determined by the quantity of (^3 H)-farnesyl which is transferred from (^3 H)-farnesyl pyrophosphate ((^3 H) FPP) to a biotinylated acceptor substrate.
The acceptor substrate, which is biotinylated, is a peptide of 11 amino acids corresponding to the terminal sequence of B lamin (BLB). The donor substrate, farnesyl pyrophosphate, is labelled with tritrium (^3 HFPP). […] The radio-labelled peptide excites the beads, which then emit light which is quantified in a solid-liquid scintillation counter (Topcount®, Packard).
The SPA reaction is started by adding 40 μl of Ftase (2 μg) to a microtitre plate which contains 20 μl of BLB (0.1 μM), 20 μl of ^3 HFPP (0.12 μM) and 20 μl of assay buffer 50 mM Hepes, pH 7.5, 5 mM MgCl2, 5 mM DTT, 20 mM KCl, 0.01% triton X100 (control) or 20 μl of sample diluted in assay buffer (screening). The plate is incubated at 37° C. for 60 minutes and the reaction is stopped by adding 150 μl of stopping reagent containing the SPA beads. The plate is sealed with an adhesive film, left at ambient temperature for 30 minutes in order to reach equilibrium, and then counted in the Topcount counter. […] The IC50 values of the compounds are calculated by non-linear regression.
With COC(=O)CCC1NC(=O)C(Cc2ccccc2)N(C)C(=O)C(NC(=O)CCC2CCCCC2)C(C)OC(=O)C2(CC2C)NC(=O)C(c2ccc(O)cc2)NC(=O)C(Cc2c[nH]c3ccc(O)cc23)NC1=O (stereo not drawn) [Peptide 3] ({Propanoyl(3-cHex)}-T[NMeF]E(OMe)[Trp(5-OH)][Hpg][X1]; ester 1-C; configuration not given here) the IC50 was 1300 nM. In the case of CC1OC(=O)C2(CC2C)NC(=O)C(c2ccc(O)cc2)NC(=O)C(Cc2c[nH]c3ccc(O)cc23)NC(=O)C(CCC(=O)O)NC(=O)C(Cc2ccccc2)N(C)C(=O)C1NC(=O)CCC1CCCCC1 (stereo not drawn) [Peptide 2] ({Propanoyl(3-cHex)}-T[NMeF]E[Trp(5-OH)][Hpg][X1]; ester 1-C; configuration not given here), the IC50 is reported as 538 nM. In the case of CC1OC(=O)C2(CC2)NC(=O)C(c2ccc(O)cc2)NC(=O)C(Cc2c[nH]c3ccc(O)cc23)NC(=O)C(CCC(=O)O)NC(=O)C(Cc2ccccc2)N(C)C(=O)C1NC(=O)CCC1CCCCC1 (stereo not drawn) [Peptide 1] ({Propanoyl(3-cHex)}-T[NMeF]E[Trp(5-OH)][Hpg][Ac3c]; ester 1-C; configuration not given here), the IC50 is reported as 626 nM.
